The subject of data set [1] is BEAS-2B cells. Kind of data set: Toxicity: compound concentration needed to induce greater than 50 percent of cell loss. Conditions: 18 hours incubation. The format is cell-based, human. The method, boiled down: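 BEAS-2B cells stably expressing TFEB-EGFP treated with serial compound dilutions for 18 h, then PFA-fixed, DAPI-stained and imaged. Toxicity scored as the concentration causing >50% cell loss, binned as ≥25 μM, <25 and >1 μM, or ≤1 μM ("+++").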

Data set [2] has as its system TFEB. Kind of data set: High content screen measuring TFEB nuclear accumulation (TFEB nuclear/cytosol ratio) in BEAS-2B cells stably expressing TFEB-EGFP. In kind it is cell-based, human. Conditions: 18 hours incubation. The essentials:
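BEAS-2B cells stably expressing TFEB-EGFP (~2300–2500 per well) pre-incubated 8 hours, then exposed to serially diluted compounds (DMEM low glucose, 2% FBS) for 18 hours, PFA-fixed and DAPI-stained. Imaged nuclear (DAPI mask) vs cytosolic (expanded mask) TFEB-GFP; activity = minimal concentration raising nuclear/cytosol ratio by 25%.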

Here are results for 27 molecules from patent publication US12286442B2, “Methods and materials for increasing transcription factor eb polypeptide levels” (University of Pittsburgh—Of the Commonwealth System of …, priority 2019, dated 2025).

Take `CCc1nc2ccc(Nc3nc(-c4ccncc4)nc4ncccc34)cc2o1` [Compound 356]: in data set [1], the “toxicity (compound concentration needed to induce greater than 50 percent of cell loss)” value is given as “+ (cell loss of greater than 50 percent at a concentration that equals or is greater than 25 μM was represented as)”. Also, the “efficacy (minimal compound concentration needed to increase TFEB nuclear/cytosol ratio by 25%)” value in data set [2] is given as “+++ (“+++” equals ≤1 μM)”.

`FC(F)(F)c1nc2ccc(Nc3nc(-c4ccncc4)nc4ncccc34)cc2o1` [Compound 358]: the “toxicity (compound concentration needed to induce greater than 50 percent of cell loss)” value in data set [1] is on record as “+ (cell loss of greater than 50 percent at a concentration that equals or is greater than 25 μM was represented as)”. Also, the “efficacy (minimal compound concentration needed to increase TFEB nuclear/cytosol ratio by 25%)” value in data set [2] is “++ (“++” equals between ≤25 μM and >1 μM)”.

`CCCCc1nc2ccc(Nc3nc(-c4ccncc4)nc4ccccc34)cc2o1` [Compound 359]: in data set [1], the “toxicity (compound concentration needed to induce greater than 50 percent of cell loss)” value is reported as “+ (cell loss of greater than 50 percent at a concentration that equals or is greater than 25 μM was represented as)”. Besides, the “efficacy (minimal compound concentration needed to increase TFEB nuclear/cytosol ratio by 25%)” value in data set [2] is “+ (“+” equals >25 μM)”.

Consider `CCc1nc2ccc(Nc3nc(-c4ccncc4)nc4ccccc34)cc2o1` [Compound 360], for which the “toxicity (compound concentration needed to induce greater than 50 percent of cell loss)” value in data set [1] is “+ (cell loss of greater than 50 percent at a concentration that equals or is greater than 25 μM was represented as)”. Moreover, in data set [2], the “efficacy (minimal compound concentration needed to increase TFEB nuclear/cytosol ratio by 25%)” value is reported as “+ (“+” equals >25 μM)”.

As to `CCc1nc2ccc(Nc3nc(-c4ccncc4)nc4cccc(OC)c34)cc2s1` [Compound 361], the “toxicity (compound concentration needed to induce greater than 50 percent of cell loss)” value in data set [1] is “+ (cell loss of greater than 50 percent at a concentration that equals or is greater than 25 μM was represented as)”. In addition, the “efficacy (minimal compound concentration needed to increase TFEB nuclear/cytosol ratio by 25%)” value in data set [2] is “++ (“++” equals between ≤25 μM and >1 μM)”.

With `CCc1nc2ccc(Nc3nc(-c4ccncc4)nc4c(OC)cccc34)cc2s1` [Compound 362], in data set [1], the “toxicity (compound concentration needed to induce greater than 50 percent of cell loss)” value is listed as “+ (cell loss of greater than 50 percent at a concentration that equals or is greater than 25 μM was represented as)”. For the same molecule, the “efficacy (minimal compound concentration needed to increase TFEB nuclear/cytosol ratio by 25%)” value in data set [2] was “+ (“+” equals >25 μM)”.

Take `CCCc1nc2ccc(Nc3nc(-c4ccncc4)nc4ncccc34)cc2o1` [Compound 363]: the “toxicity (compound concentration needed to induce greater than 50 percent of cell loss)” value in data set [1] is on record as “+ (cell loss of greater than 50 percent at a concentration that equals or is greater than 25 μM was represented as)”. In addition, the “efficacy (minimal compound concentration needed to increase TFEB nuclear/cytosol ratio by 25%)” value in data set [2] was “+++ (“+++” equals ≤1 μM)”.

On to `COc1ccc2nc(-c3ccncc3)nc(Nc3ccc4nc(C(C)C)sc4c3)c2c1` [Compound 364], for which the “toxicity (compound concentration needed to induce greater than 50 percent of cell loss)” value in data set [1] was “+ (cell loss of greater than 50 percent at a concentration that equals or is greater than 25 μM was represented as)”. The “efficacy (minimal compound concentration needed to increase TFEB nuclear/cytosol ratio by 25%)” value in data set [2] was “+ (“+” equals >25 μM)”.

On to `CCCCc1nc2ccc(Nc3nc(-c4ccncc4)nc4ncccc34)cc2o1` [Compound 365], for which the “toxicity (compound concentration needed to induce greater than 50 percent of cell loss)” value in data set [1] is “+ (cell loss of greater than 50 percent at a concentration that equals or is greater than 25 μM was represented as)”. Besides, the “efficacy (minimal compound concentration needed to increase TFEB nuclear/cytosol ratio by 25%)” value in data set [2] is listed as “+++ (“+++” equals ≤1 μM)”.

Take `CCc1nc2ccc(Nc3nc(-c4ccncc4)nc4cc(F)ccc34)cc2s1` [Compound 366]: in data set [1], the “toxicity (compound concentration needed to induce greater than 50 percent of cell loss)” value was “+ (cell loss of greater than 50 percent at a concentration that equals or is greater than 25 μM was represented as)”. In addition, in data set [2], the “efficacy (minimal compound concentration needed to increase TFEB nuclear/cytosol ratio by 25%)” value is listed as “+ (“+” equals >25 μM)”.

For `CC(C)c1nc2ccc(Nc3nc(-c4ccncc4)nc4c(F)cccc34)cc2s1` [Compound 367], in data set [1], the “toxicity (compound concentration needed to induce greater than 50 percent of cell loss)” value was “+ (cell loss of greater than 50 percent at a concentration that equals or is greater than 25 μM was represented as)”. For the same molecule, in data set [2], the “efficacy (minimal compound concentration needed to increase TFEB nuclear/cytosol ratio by 25%)” value was “++ (“++” equals between ≤25 μM and >1 μM)”.

In the case of `CCc1nc2ccc(Nc3nc(-c4ccncc4)nc4cccc(F)c34)cc2s1` [Compound 368], the “toxicity (compound concentration needed to induce greater than 50 percent of cell loss)” value in data set [1] was “+ (cell loss of greater than 50 percent at a concentration that equals or is greater than 25 μM was represented as)”. The “efficacy (minimal compound concentration needed to increase TFEB nuclear/cytosol ratio by 25%)” value in data set [2] is “++ (“++” equals between ≤25 μM and >1 μM)”.

With `CCc1nc2ccc(Nc3nc(-c4ccncc4)nc4c(F)cccc34)cc2s1` [Compound 369], the “toxicity (compound concentration needed to induce greater than 50 percent of cell loss)” value in data set [1] was “+ (cell loss of greater than 50 percent at a concentration that equals or is greater than 25 μM was represented as)”. For the same molecule, the “efficacy (minimal compound concentration needed to increase TFEB nuclear/cytosol ratio by 25%)” value in data set [2] is “+ (“+” equals >25 μM)”.

Regarding `COc1ccc2c(Nc3cc(F)c4[nH]ccc4c3)nc(-c3ccncc3)nc2c1` [Compound 370], in data set [1], the “toxicity (compound concentration needed to induce greater than 50 percent of cell loss)” value is “+ (cell loss of greater than 50 percent at a concentration that equals or is greater than 25 μM was represented as)”. Further, in data set [2], the “efficacy (minimal compound concentration needed to increase TFEB nuclear/cytosol ratio by 25%)” value is “+++ (“+++” equals ≤1 μM)”.

As for `Cc1cccc2c(Nc3ccc4ncsc4c3)nc(-c3ccncc3)nc12` [Compound 371], the “toxicity (compound concentration needed to induce greater than 50 percent of cell loss)” value in data set [1] is “+ (cell loss of greater than 50 percent at a concentration that equals or is greater than 25 μM was represented as)”. In addition, the “efficacy (minimal compound concentration needed to increase TFEB nuclear/cytosol ratio by 25%)” value in data set [2] is listed as “+++ (“+++” equals ≤1 μM)”.

Consider `Fc1cccc2c(Nc3ccc4ncsc4c3)nc(-c3ccncc3)nc12` [Compound 372], for which, in data set [1], the “toxicity (compound concentration needed to induce greater than 50 percent of cell loss)” value is given as “+ (cell loss of greater than 50 percent at a concentration that equals or is greater than 25 μM was represented as)”. Further, the “efficacy (minimal compound concentration needed to increase TFEB nuclear/cytosol ratio by 25%)” value in data set [2] is reported as “+++ (“+++” equals ≤1 μM)”.

As to `Fc1cccc2c(Nc3ccc4nc(C5CC5)sc4c3)nc(-c3ccncc3)nc12` [Compound 373], the “toxicity (compound concentration needed to induce greater than 50 percent of cell loss)” value in data set [1] is recorded as “+ (cell loss of greater than 50 percent at a concentration that equals or is greater than 25 μM was represented as)”. Moreover, the “efficacy (minimal compound concentration needed to increase TFEB nuclear/cytosol ratio by 25%)” value in data set [2] is “++ (“++” equals between ≤25 μM and >1 μM)”.

Consider `CC(C)c1nc2ccc(Nc3nc(-c4ccncc4)nc4ccccc34)cc2o1` [Compound 374], for which the “toxicity (compound concentration needed to induce greater than 50 percent of cell loss)” value in data set [1] is listed as “+ (cell loss of greater than 50 percent at a concentration that equals or is greater than 25 μM was represented as)”. In data set [2], the “efficacy (minimal compound concentration needed to increase TFEB nuclear/cytosol ratio by 25%)” value was “++ (“++” equals between ≤25 μM and >1 μM)”.

On to `CC(C)c1nc2ccc(Nc3nc(-c4ccncc4)nc4ncccc34)cc2o1` [Compound 375], for which, in data set [1], the “toxicity (compound concentration needed to induce greater than 50 percent of cell loss)” value was “+ (cell loss of greater than 50 percent at a concentration that equals or is greater than 25 μM was represented as)”. Besides, the “efficacy (minimal compound concentration needed to increase TFEB nuclear/cytosol ratio by 25%)” value in data set [2] is reported as “+++ (“+++” equals ≤1 μM)”.

Consider `COc1ccc2nc(-c3ccncc3)nc(Nc3ccc4nc(C(C)C)sc4c3)c2c1` [Compound 376], for which the “toxicity (compound concentration needed to induce greater than 50 percent of cell loss)” value in data set [1] is “+ (cell loss of greater than 50 percent at a concentration that equals or is greater than 25 μM was represented as)”. Also, in data set [2], the “efficacy (minimal compound concentration needed to increase TFEB nuclear/cytosol ratio by 25%)” value is “+++ (“+++” equals ≤1 μM)”.

For `Cc1nc2ccc(Nc3nc(-c4ccncc4)nc4c(C)cccc34)cc2o1` [Compound 377], in data set [1], the “toxicity (compound concentration needed to induce greater than 50 percent of cell loss)” value was “+ (cell loss of greater than 50 percent at a concentration that equals or is greater than 25 μM was represented as)”. In addition, the “efficacy (minimal compound concentration needed to increase TFEB nuclear/cytosol ratio by 25%)” value in data set [2] is “++ (“++” equals between ≤25 μM and >1 μM)”.

In the case of `Cc1nc2ccc(Nc3nc(-c4ccncc4)nc4c(C)cccc34)cc2s1` [Compound 378], the “toxicity (compound concentration needed to induce greater than 50 percent of cell loss)” value in data set [1] is reported as “+ (cell loss of greater than 50 percent at a concentration that equals or is greater than 25 μM was represented as)”. Further, the “efficacy (minimal compound concentration needed to increase TFEB nuclear/cytosol ratio by 25%)” value in data set [2] is recorded as “+++ (“+++” equals ≤1 μM)”.

For `Cc1cccc2c(Nc3ccc4nc(C5CC5)sc4c3)nc(-c3ccncc3)nc12` [Compound 379], the “toxicity (compound concentration needed to induce greater than 50 percent of cell loss)” value in data set [1] is reported as “+ (cell loss of greater than 50 percent at a concentration that equals or is greater than 25 μM was represented as)”. Moreover, the “efficacy (minimal compound concentration needed to increase TFEB nuclear/cytosol ratio by 25%)” value in data set [2] is recorded as “+++ (“+++” equals ≤1 μM)”.

For `Cc1cccc2c(Nc3ccc4cnsc4c3)nc(-c3ccncc3)nc12` [Compound 380], the “toxicity (compound concentration needed to induce greater than 50 percent of cell loss)” value in data set [1] was “+ (cell loss of greater than 50 percent at a concentration that equals or is greater than 25 μM was represented as)”. Further, in data set [2], the “efficacy (minimal compound concentration needed to increase TFEB nuclear/cytosol ratio by 25%)” value is “++ (“++” equals between ≤25 μM and >1 μM)”.

Turning to `Cc1nc2ccc(Nc3nc(-c4ccncc4)nc4c(F)cccc34)cc2s1` [Compound 381], the “toxicity (compound concentration needed to induce greater than 50 percent of cell loss)” value in data set [1] is “+ (cell loss of greater than 50 percent at a concentration that equals or is greater than 25 μM was represented as)”. Further, in data set [2], the “efficacy (minimal compound concentration needed to increase TFEB nuclear/cytosol ratio by 25%)” value was “+++ (“+++” equals ≤1 μM)”.

As for `Fc1cccc2c(Nc3ccc4cnsc4c3)nc(-c3ccncc3)nc12` [Compound 382], in data set [1], the “toxicity (compound concentration needed to induce greater than 50 percent of cell loss)” value is reported as “+ (cell loss of greater than 50 percent at a concentration that equals or is greater than 25 μM was represented as)”. Moreover, in data set [2], the “efficacy (minimal compound concentration needed to increase TFEB nuclear/cytosol ratio by 25%)” value was “+ (“+” equals >25 μM)”.

On to `c1cnc2nc(-c3cncs3)nc(Nc3ccc4[nH]ncc4c3)c2c1` [Compound 383], for which, in data set [1], the “toxicity (compound concentration needed to induce greater than 50 percent of cell loss)” value is “+ (cell loss of greater than 50 percent at a concentration that equals or is greater than 25 μM was represented as)”. The “efficacy (minimal compound concentration needed to increase TFEB nuclear/cytosol ratio by 25%)” value in data set [2] was “++ (“++” equals between ≤25 μM and >1 μM)”.
